{"source": "patent US20240424119A1", "about": "“USE OF POLYPEPTIDE IN RESISTANCE TO ADDICTION AND RELAPSE THEREOF, AND COMPLEX AND POLYPEPTIDE” (SHENZHEN CHENYANG BIOLOGICAL TECHNOLOGY CO., LTD, priority 2021, published 2024)", "key": {"[1]": {"tested_on": "cocaine-induced behavioral sensitization in mice", "experiment": "Effects of different polypeptides on cocaine-induced behavioral sensitization in mice", "assay_type": "in vivo", "conditions": "3 nmol/g i.p. 1 hour before cocaine (15 mg/kg) on sixth day of pause; TAT fusion peptides; n=10", "description": "(§1) Then, the C-terminal of Pep1 to Pep5 was fused to the N-terminal of TAT respectively to obtain fusion peptides which could penetrate the blood-brain barrier.\nIn order to verify that the polypeptide of the invention is also effective against cocaine-induced addiction, the following tests were carried out:\nMice were given cocaine (15 mg/kg) or normal saline and then tested for 30 minutes, repeated for 5 days, and followed by a 5-day pause of administration. On the sixth day of the pause, 1 hour before cocaine administration, different polypeptides of Example 9 (3 nmol/g) were administered to mice via intraperitoneal injection (10 ml/kg) for drug induction, and a testing was carried out, and the results were shown in FIG. 18."}, "[2]": {"tested_on": "morphine-induced CPP in mice", "experiment": "Effects of different polypeptides on morphine-induced CPP in mice", "assay_type": "in vivo", "conditions": "3 nmol/g i.p. on Day 10, recorded on the second day after administration; TAT fusion peptides; n=12", "description": "The CPP equipment used in the experiment has two equal-volume chambers (15 cm×15 cm×37 cm) with a movable door in the middle. Mice could freely shuttle between chambers during testing, or were limited to one side of the chamber during training. The interior of one chamber is black and the bottom is striped, while the other chamber is white and the bottom is latticed. All behavioral tests, including distance and time of activity, were recorded by a camera and calculated using the SMART Video Tracking System (Version 2.5; Panlab Technology for Biosearch, Spain).\nOn Day 1, mice were allowed to explore two chambers freely for 15 min without any treatment (before testing). On Day 2, 4, 6 and 8, control group (saline group) and model group (morphine group) received saline (10 mL/kg) and morphine (10 mg/kg), respectively. TAT group (3 nmol/g) and TAT-D2R-KT group (3 nmol/g) were injected (intraperitoneally, 10 ml/kg body weight) 1 hour before morphine injection. After injection, all mice were trained in the white chamber for 40 min. On Day 3, 5, 7 and 9, all mice were given normal saline, and then immediately placed in the black chamber for 40 min; on Day 10, after all mice explored freely for 15 min, the test ended, and the CPP scores (moving duration of mice) were shown in FIG. 6.\nas §1\nMice were given morphine (1 mg/kg) or normal saline for 8 days, and different polypeptides (3 nmol/g) of Example 9 were administered to mice via intraperitoneal injection (10 ml/kg) on Day 10; the expression of morphine-induced CPP was recorded according to the CPP experimental method in Example 5 on the second day after administration, and the results were shown in FIG. 17."}, "[3]": {"tested_on": "alcohol-induced behavioral sensitization in mice", "experiment": "Effects of different polypeptides on alcohol-induced behavioral sensitization in mice", "assay_type": "in vivo", "conditions": "3 nmol/g i.p. 1 hour before alcohol (2.2 g/kg) on third day after training; TAT fusion peptides; n=10", "description": "as §1\nIn order to verify that the polypeptide of the invention is also effective against alcohol-induced addiction, the following tests were carried out:\nThe training period lasted for 10 days, during which mice were administered alcohol (2.2 g/kg) or normal saline every other day and then immediately tested for 15 minutes. On the third day after training, 1 hour before alcohol administration, different polypeptides of Example 9 (3 nmol/g) were administered to mice via intraperitoneal injection (10 ml/kg) for drug induction, and a testing was carried out, and the results were shown in FIG. 19."}, "[4]": {"target": "T1, NR2B (Mus musculus, UniProt Q01097)", "T1 construct": "from tissue; host or cells: hippocampus extract", "T1 sequence (Q01097 27-1482, other chains not shown)": "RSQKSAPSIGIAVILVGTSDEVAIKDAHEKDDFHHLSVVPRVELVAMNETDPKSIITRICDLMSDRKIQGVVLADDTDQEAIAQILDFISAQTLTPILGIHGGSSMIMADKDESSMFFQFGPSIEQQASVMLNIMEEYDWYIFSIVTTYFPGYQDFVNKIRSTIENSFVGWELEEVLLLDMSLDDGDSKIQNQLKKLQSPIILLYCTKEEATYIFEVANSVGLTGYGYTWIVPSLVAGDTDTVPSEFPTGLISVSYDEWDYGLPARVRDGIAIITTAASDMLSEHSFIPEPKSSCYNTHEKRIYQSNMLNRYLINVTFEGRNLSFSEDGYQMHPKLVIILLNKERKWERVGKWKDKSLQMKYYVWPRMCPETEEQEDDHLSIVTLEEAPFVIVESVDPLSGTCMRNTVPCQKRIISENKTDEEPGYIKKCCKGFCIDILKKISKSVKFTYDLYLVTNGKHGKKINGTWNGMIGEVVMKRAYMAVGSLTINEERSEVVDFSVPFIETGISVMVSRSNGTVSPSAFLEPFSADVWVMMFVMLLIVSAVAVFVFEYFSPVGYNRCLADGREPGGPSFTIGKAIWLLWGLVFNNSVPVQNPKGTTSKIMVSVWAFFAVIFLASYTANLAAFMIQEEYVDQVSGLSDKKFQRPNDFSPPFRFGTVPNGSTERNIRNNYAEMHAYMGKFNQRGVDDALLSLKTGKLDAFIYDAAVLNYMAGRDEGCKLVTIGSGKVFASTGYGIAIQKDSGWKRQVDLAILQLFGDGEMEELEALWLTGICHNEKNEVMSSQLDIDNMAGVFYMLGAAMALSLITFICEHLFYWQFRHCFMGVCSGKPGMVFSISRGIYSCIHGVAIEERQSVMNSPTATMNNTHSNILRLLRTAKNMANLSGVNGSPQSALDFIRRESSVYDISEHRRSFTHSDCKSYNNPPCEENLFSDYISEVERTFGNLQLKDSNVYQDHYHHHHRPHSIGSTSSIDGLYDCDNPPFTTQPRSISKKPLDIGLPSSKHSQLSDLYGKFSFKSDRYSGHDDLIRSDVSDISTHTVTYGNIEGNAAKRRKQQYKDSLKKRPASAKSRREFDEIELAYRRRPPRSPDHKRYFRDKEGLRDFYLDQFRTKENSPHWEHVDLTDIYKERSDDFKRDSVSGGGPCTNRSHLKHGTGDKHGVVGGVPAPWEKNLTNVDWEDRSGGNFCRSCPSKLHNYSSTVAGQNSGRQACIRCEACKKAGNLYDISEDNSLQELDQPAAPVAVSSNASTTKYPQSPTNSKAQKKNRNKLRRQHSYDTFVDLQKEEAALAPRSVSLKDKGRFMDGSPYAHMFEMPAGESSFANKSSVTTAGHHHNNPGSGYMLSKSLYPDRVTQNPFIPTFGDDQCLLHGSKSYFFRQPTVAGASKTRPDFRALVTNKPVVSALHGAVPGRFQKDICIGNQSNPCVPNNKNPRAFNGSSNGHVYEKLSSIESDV", "experiment": "GST-pulldown of NR2B from hippocampus extract by GST fusion proteins of D2R regions", "assay_type": "binding", "conditions": "500 μg hippocampus extract, overnight, 4° C.", "description": "In order to search for the physical interaction site between D2R and NR2B, cDNA fragments of the CT region of D2R (T428-C443) and the third intracellular loop (IL3) region of D2R (K211-Q373) were first obtained via the D2R full-length cDNA clone (Genbank Accession No.: M29066.1). These fragments were subcloned to the BamH1/EcoR1 or BamH1/Xho1 site of a pGEX-4T-3 plasmid (YouBio, Item No: VT1255). Initiation methionine residue and termination codon were added as appropriate. All constructs were resequenced to confirm that splice fusion was achieved appropriately. The GST fusion protein containing the IL3 region of D2R (GST-D2R-IL3) and the GST fusion protein containing the CT region of D2R (GST-D2R-CT) were obtained by using E.coli BL21 viable cells (AlpalifeBio, Item No: KTSM104L) for expression and purifying them from bacterial lysate, wherein the specific positions of the coding sequences of IL3 region and CT region on D2R were shown in FIG. 2.\n500 μg of dissolved hippocampus extract was diluted with 1×PBS/0.1% Triton X-100 and incubated overnight with 20 μl protein GST resin (TransGen Biotech, Item No: N21220, Beijing, China) saturated with GST protein only or with the prepared 15 µg GST fusion protein at 4° C. Beads were washed 1-8 times with 1×PBS/0.1% Triton X-100. Binding proteins were eluted with 2×loading buffer, separated by SDS-PAGE, and subjected to Western blot with respective antibodies thereof, and the results were shown in A of FIG. 3.\nNext, in order to further explore the interaction sequence/site between D2R and NR2B, the IL3 region was divided into KVC (K211-V270) region of D2R, ES (E271-S321) region of D2R and PQ (P322-Q373) region of D2R.\nAccording to the method in the present Example, a pulldown analysis was performed using a GST fusion protein containing the KVC region of D2R (GST-D2R-KVC), a GST fusion protein containing the ES region of D2R (GST-D2R-ES), and a GST fusion protein containing the PQ region of D2R (GST-D2R-PQ), and the results of Western blot were shown in B of FIG. 3.\nFurther, the KVC region was divided into KT (K211-T225) region of D2R, KL (K226-L240) region of D2R, KV (K241-V255) region of D2R, and IV (1256-V270) region of D2R.\nAccording to the method in the present Example, a pulldown analysis was performed using a GST fusion protein containing the KT region of D2R (GST-D2R-KT), the GST fusion protein containing the KL region of D2R (GST-D2R-KL), a GST fusion protein containing the KV region of D2R (GST-D2R-KV), and a GST fusion protein containing the IV region of D2R (GST-D2R-IV), and the results of Western blot were shown in C of FIG. 3."}, "[5]": {"target": "T2, D2R/NR2B complex (Mus musculus, UniProt Q01097)", "T2 construct": "Co-immunoprecipitation was performed using a protein sample (100-500 μg protein) from hippocampus tissue; from tissue; host or cells: hippocampus tissue of CPP and BS mice treated in vivo", "T2 sequence (Q01097 27-1482, other chains not shown)": "as above", "experiment": "Co-immunoprecipitation of hippocampus tissue from polypeptide-treated CPP mice and BS mice", "assay_type": "in vivo", "description": "Co-immunoprecipitation was performed using a protein sample (100-500 μg protein) from hippocampus tissue. NR2B and D1R or D2R were precipitated using an anti-NR2B and D2R, D2R or NR2B and 25 μl protein A/G+agarose bead slurry (SantaCruz Biotechnology, sc-2001), respectively.\nThe protein was then isolated on 8% SDS-PAGE gel and detected with a mouse antibody against NR2B and D2R. HRP-coupled secondary antibody and enhanced chemiluminescence method were used to detect the protein. Density analysis of bands was performed using image laboratory software.\nIn order to verify the effect of KT polypeptide of D2R on the D2R/NR2B complex in vivo, the C terminal of the region (K211-T225) was fused to the N terminal of transduction domain of HIV-1-type Tat protein (as set forth in SEQ ID NO: 6, hereinafter referred to as TAT) to obtain a fusion protein which can permeate blood-brain barrier, named TAT-D2R-KT.\nCPP mice and BS mice were treated with TAT-D2R-KT respectively, and mice treated with TAT only were used as control (all treated by single intraperitoneal administration, 10 ml/kg body weight, medicament concentration 3 nmol/g). After 1 hour of treatment, analysis was performed according to the co-immunoprecipitation method in Example 1, and the results were shown in FIG. 4."}, "[6]": {"target": "binding of D2R to NR2B (Homo sapiens, UniProt Q13224)", "sequence (Q13224 27-1484)": "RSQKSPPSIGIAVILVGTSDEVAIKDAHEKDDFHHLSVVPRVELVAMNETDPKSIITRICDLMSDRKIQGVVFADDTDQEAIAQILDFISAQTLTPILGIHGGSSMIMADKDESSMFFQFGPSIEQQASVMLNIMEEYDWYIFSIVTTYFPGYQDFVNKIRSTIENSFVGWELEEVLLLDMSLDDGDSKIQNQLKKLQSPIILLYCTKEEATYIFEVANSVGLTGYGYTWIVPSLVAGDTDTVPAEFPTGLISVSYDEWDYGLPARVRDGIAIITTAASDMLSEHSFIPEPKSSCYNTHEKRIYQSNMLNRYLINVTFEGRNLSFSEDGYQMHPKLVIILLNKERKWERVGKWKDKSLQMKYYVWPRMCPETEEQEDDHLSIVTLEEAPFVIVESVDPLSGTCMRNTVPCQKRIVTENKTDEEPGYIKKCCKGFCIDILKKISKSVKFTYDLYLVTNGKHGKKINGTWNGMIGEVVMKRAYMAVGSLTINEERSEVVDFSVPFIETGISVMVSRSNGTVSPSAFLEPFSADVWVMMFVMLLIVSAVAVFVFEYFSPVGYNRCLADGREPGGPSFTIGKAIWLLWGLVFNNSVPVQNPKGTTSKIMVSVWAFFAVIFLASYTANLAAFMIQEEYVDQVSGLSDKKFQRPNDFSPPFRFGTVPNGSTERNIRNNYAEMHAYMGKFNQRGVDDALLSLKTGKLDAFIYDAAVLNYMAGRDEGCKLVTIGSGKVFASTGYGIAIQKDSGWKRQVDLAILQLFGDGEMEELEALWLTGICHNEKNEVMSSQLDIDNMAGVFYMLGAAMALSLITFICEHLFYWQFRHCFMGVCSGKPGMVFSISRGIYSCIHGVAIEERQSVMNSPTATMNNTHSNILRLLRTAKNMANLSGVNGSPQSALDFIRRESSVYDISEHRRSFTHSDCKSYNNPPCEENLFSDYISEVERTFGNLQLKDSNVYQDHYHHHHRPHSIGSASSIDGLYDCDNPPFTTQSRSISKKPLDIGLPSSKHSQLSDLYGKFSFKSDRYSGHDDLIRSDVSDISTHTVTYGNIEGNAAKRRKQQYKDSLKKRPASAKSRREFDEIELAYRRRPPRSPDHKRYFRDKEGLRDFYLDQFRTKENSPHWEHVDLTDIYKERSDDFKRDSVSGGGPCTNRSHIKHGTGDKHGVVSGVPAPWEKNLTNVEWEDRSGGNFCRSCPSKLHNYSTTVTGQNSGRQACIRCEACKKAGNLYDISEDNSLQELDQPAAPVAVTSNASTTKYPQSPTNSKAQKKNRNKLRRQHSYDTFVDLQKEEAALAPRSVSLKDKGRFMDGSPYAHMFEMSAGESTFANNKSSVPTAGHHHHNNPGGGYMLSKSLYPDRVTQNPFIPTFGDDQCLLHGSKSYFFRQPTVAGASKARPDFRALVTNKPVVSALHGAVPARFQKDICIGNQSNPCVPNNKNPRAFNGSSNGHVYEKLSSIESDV", "conditions": "Liu et al., Neuron 52, 897-909, FIGS. 3M and 3N; cited from earlier work"}}, "note": "No end group written: not given here.", "data": [{"molecule": "KIYIVLGGGRKRVNT [Pep4, variant with the mid-segment RRR mutated to GGG; tested fused to TAT]", "values": [{"measurement": "expression of sensitization behavior (cocaine-induced)", "setting": "[1]", "result": "failed to inhibit the expression of sensitization behavior"}, {"measurement": "activity distance of morphine-CPP mice", "setting": "[2]", "result": "failed to significantly reduce the activity distance"}, {"measurement": "expression of sensitization behavior (alcohol-induced)", "setting": "[3]", "result": "failed to inhibit the expression of sensitization behavior"}]}, {"molecule": "KIYIVLRRRGGGVNT [Pep5, variant with the mid-segment RKR mutated to GGG; tested fused to TAT]", "values": [{"measurement": "expression of sensitization behavior (cocaine-induced)", "setting": "[1]", "result": "failed to inhibit the expression of sensitization behavior"}, {"measurement": "activity distance of morphine-CPP mice", "setting": "[2]", "result": "failed to significantly reduce the activity distance"}, {"measurement": "expression of sensitization behavior (alcohol-induced)", "setting": "[3]", "result": "failed to inhibit the expression of sensitization behavior"}]}, {"molecule": "KT region of D2R: GST fusion protein containing the KT region of D2R (K211-T225) (KIYIVLRRRRKRVNT; also: GST fusion)", "values": [{"measurement": "precipitation of NR2B by GST fusion protein (pulldown, Western blot)", "setting": "[4]", "result": "precipitated with affinity"}]}, {"molecule": "KIYIVLRRRRKRV [Pep3, variant of KT polypeptide, C-terminal truncated; tested fused to TAT]", "values": [{"measurement": "expression of sensitization behavior (cocaine-induced)", "setting": "[1]", "result": "significantly inhibited the expression of sensitization behavior"}, {"measurement": "activity distance of morphine-CPP mice", "setting": "[2]", "result": "significantly reduced the activity distance"}, {"measurement": "expression of sensitization behavior (alcohol-induced)", "setting": "[3]", "result": "significantly inhibited the expression of sensitization behavior"}]}, {"molecule": "KVC region of D2R: GST fusion protein containing the KVC region of D2R (K211-V270) (KIYIVLRRRRKRVNTKRSSRAFRAHLRAPLKGNCTHPEDMKLCTVIMKSNGSFPVNRRRV; cysteine pairing not given here; also: GST fusion)", "values": [{"measurement": "precipitation of NR2B by GST fusion protein (pulldown, Western blot)", "setting": "[4]", "result": "precipitated with affinity"}]}, {"molecule": "KIYIVLRRRRKRVNT [Pep1, KT polypeptide, K211-T225 of the IL3 region of D2R; tested in vivo fused to TAT]", "values": [{"measurement": "D2R/NR2B interaction in hippocampus tissue (co-immunoprecipitation)", "setting": "[5]; CPP mice and BS mice, single intraperitoneal administration 3 nmol/g, 1 hour after treatment, TAT only as control", "result": "competitively disrupted the D2R/NR2B interaction"}, {"measurement": "interaction between D2R and NR2B", "setting": "[5]; summary statement of the inventors' finding, no conditions given", "result": "successfully reduced the interaction between D2R and NR2B"}, {"measurement": "expression of sensitization behavior (cocaine-induced)", "setting": "[1]", "result": "significantly inhibited the expression of sensitization behavior"}, {"measurement": "activity distance of morphine-CPP mice", "setting": "[2]", "result": "significantly reduced the activity distance"}, {"measurement": "expression of sensitization behavior (alcohol-induced)", "setting": "[3]", "result": "significantly inhibited the expression of sensitization behavior"}]}, {"molecule": "KL region of D2R: GST fusion protein containing the KL region of D2R (K226-L240) (KRSSRAFRAHLRAPL; also: GST fusion; UniProt P14416 226-240, looked up, fragment)", "values": [{"measurement": "precipitation of NR2B by GST fusion protein (pulldown, Western blot)", "setting": "[4]", "result": "could not be precipitated"}]}, {"molecule": "YIVLRRRRKRVNT [Pep2, variant of KT polypeptide, N-terminal truncated; tested fused to TAT]", "values": [{"measurement": "expression of sensitization behavior (cocaine-induced)", "setting": "[1]", "result": "significantly inhibited the expression of sensitization behavior"}, {"measurement": "activity distance of morphine-CPP mice", "setting": "[2]", "result": "significantly reduced the activity distance"}, {"measurement": "expression of sensitization behavior (alcohol-induced)", "setting": "[3]", "result": "significantly inhibited the expression of sensitization behavior"}]}, {"molecule": "P4: Liu et al. polypeptide of IL3 from D2R (1210-K226) lacking the motif TKRSSRAFRA (IKIYIVLRRRRKRVNTK; UniProt P14416 210-226, looked up, fragment) [Pep P4]", "values": [{"measurement": "prevention of the binding of D2R to NR2B", "setting": "[6]", "result": "had no preventing effect"}]}, {"molecule": "P5: Liu et al. polypeptide of IL3 from D2R containing motif T225-A234 (TKRSSRAFRA; UniProt P14416 225-234, looked up, fragment) [Pep P5]", "values": [{"measurement": "prevention of the binding of D2R to NR2B", "setting": "[6]", "result": "successfully prevented the binding of D2R to NR2B"}]}, {"molecule": "IL3 region of D2R: GST fusion protein containing the IL3 region of D2R (K211-Q373) (protein, left off: a dimerising Fc or GST; large carriers; small tags and cut ends) KIYIVLRRRRKRVNTKRSSRAFRAHLRAPLKGNCTHPEDMKLCTVIMKSNGSFPVNRRRVEAARRAQELEMEMLSSTSPPERTRYSPIPPSHHQLTLPDPSHHGLHSTPDSPAKPEKNGHAKDHPKIAKIFEIQTMPNGKTRTSLKTMSRRKLSQQKEKKATQ", "values": [{"measurement": "precipitation of NR2B by GST fusion protein (pulldown, Western blot)", "setting": "[4]", "result": "precipitated with affinity"}]}]}
